According to ChEMBL document CHEMBL4145624, “MDN-0185, an Antiplasmodial Polycyclic Xanthone Isolated from Micromonospora sp. CA-256353” (J Nat Prod, 2018):

Tested on: Plasmodium falciparum
Assay: Antiplasmodial activity against late-ring/early trophozoite intraerythrocytic stage of synchronized Plasmodium falciparum 3D7 after 72 hrs by LDH assay
Assay type: functional, organism-based
Details: 3D7, 72 h

IC50: 9 nM
SMILES: Cc1cc2c(c(=O)[nH]1)C(=O)[C@]1(O)c3c(O)c4c(c5c3[C@@H](C[C@@H]1C2=O)OCO5)O[C@@H]1[C@H](O)C=CC[C@H]1C4=O
